Our source for the IC50 values is ChEMBL document CHEMBL1140365, “Investigation of glycine alpha-ketoamide HCV NS3 protease inhibitors: effect of carboxylic acid isosteres” (Bioorg Med Chem Lett, 2005).

The target of this test is NS3 (Hepatitis C virus, UniProt A3EZJ3). Put plainly: Inhibitory concentration against glycine alpha-ketoamide HCV NS3 protease. On the set-up: species or system Hepacivirus hominis.

*1 amine or outer side, *2 acyl side, *3 side chain or, on linkers, in order; H or OH if unused. Where a SMILES comes first, the peptide text is derived from it. [ ]: non-standard residue; d: D form. The star is where a group is joined. Abu(ψCOCO) = CC[C@H](N[*:1])C(=O)C(=O)[*:2]; X1 = O=C(C(=O)[*:2])[C@H](CC(F)F)N[*:1]; Pyrazinecarbonyl = O=C(c1cnccn1)*; Cha = N[C@@H](CC1CCCCC1)C(=O)O

NS3, sequence (A3EZJ3 whole entry): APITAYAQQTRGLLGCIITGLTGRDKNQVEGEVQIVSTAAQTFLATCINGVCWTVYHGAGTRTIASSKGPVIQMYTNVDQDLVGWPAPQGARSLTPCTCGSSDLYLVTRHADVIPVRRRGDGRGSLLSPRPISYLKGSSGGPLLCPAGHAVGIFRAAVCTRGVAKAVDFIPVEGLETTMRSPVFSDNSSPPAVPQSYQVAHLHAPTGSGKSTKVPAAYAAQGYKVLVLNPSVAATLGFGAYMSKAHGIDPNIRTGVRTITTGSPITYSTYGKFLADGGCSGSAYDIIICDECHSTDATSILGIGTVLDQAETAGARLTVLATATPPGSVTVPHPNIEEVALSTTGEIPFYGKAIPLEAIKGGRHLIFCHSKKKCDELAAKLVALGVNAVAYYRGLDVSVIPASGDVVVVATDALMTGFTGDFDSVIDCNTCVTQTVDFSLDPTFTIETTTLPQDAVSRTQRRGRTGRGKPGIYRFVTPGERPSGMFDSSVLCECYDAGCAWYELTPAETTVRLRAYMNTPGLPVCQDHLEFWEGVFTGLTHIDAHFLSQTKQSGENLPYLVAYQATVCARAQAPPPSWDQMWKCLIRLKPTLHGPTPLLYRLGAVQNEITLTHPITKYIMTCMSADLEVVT

Compound `CC[C@H](C)[C@H](NC(=O)[C@H](CC(C)C)NC(=O)c1cnccn1)C(=O)N[C@@H](CC1CCCCC1)C(=O)N[C@@H](CC(F)F)C(=O)C(=O)NCc1nn[nH]n1` had an IC50 of 40 nM.
Under `CC[C@H](NC(=O)[C@H](CC1CCCCC1)NC(=O)[C@@H](NC(=O)[C@H](CC(C)C)NC(=O)c1cnccn1)[C@@H](C)CC)C(=O)C(=O)NCS(=O)(=O)O` stands 220 nM; under `CC[C@H](NC(=O)[C@H](CC1CCCCC1)NC(=O)[C@@H](NC(=O)[C@H](CC(C)C)NC(=O)c1cnccn1)[C@@H](C)CC)C(=O)C(=O)NCc1nn[nH]n1`, 460 nM; under `CC[C@H](NC(=O)[C@H](CC1CCCCC1)NC(=O)[C@@H](NC(=O)[C@H](CC(C)C)NC(=O)c1cnccn1)[C@@H](C)CC)C(=O)C(=O)NCC(=O)NS(=O)(=O)c1cccc([N+](=O)[O-])c1`, 410 nM.
Under `CC[C@H](NC(=O)[C@H](CC1CCCCC1)NC(=O)[C@@H](NC(=O)[C@H](CC(C)C)NC(=O)c1cnccn1)[C@@H](C)CC)C(=O)C(=O)NCC(=O)NS(=O)(=O)c1ccc2ccccc2c1` stands 1200 nM; under `CC[C@H](NC(=O)[C@H](CC1CCCCC1)NC(=O)[C@@H](NC(=O)[C@H](CC(C)C)NC(=O)c1cnccn1)[C@@H](C)CC)C(=O)C(=O)NCC(=O)NS(=O)(=O)c1cccc(Cl)c1`, 250 nM; under `CC[C@H](NC(=O)[C@H](CC1CCCCC1)NC(=O)[C@@H](NC(=O)[C@H](CC(C)C)NC(=O)c1cnccn1)[C@@H](C)CC)C(=O)C(=O)NCC(=O)NS(=O)(=O)Cc1ccccc1`, 12000 nM.
Next, `CC[C@H](NC(=O)[C@H](CC1CCCCC1)NC(=O)[C@@H](NC(=O)[C@H](CC(C)C)NC(=O)c1cnccn1)[C@@H](C)CC)C(=O)C(=O)NCC(=O)NS(=O)(=O)c1cc(Cl)cc(Cl)c1`: 130 nM; `CC[C@H](NC(=O)[C@H](CC1CCCCC1)NC(=O)[C@@H](NC(=O)[C@H](CC(C)C)NC(=O)c1cnccn1)[C@@H](C)CC)C(=O)C(=O)NCC(=O)NS(=O)(=O)c1ccccc1`: 8900 nM.
Take `CC[C@H](C)[C@H](NC(=O)[C@H](CC(C)C)NC(=O)c1cnccn1)C(=O)N[C@@H](CC1CCCCC1)C(=O)N[C@@H](CC(F)F)C(=O)C(=O)NCC(=O)NS(=O)(=O)c1cccc(-c2ccccc2)c1`: half-maximal inhibition (IC50) required 60 nM.
On to `CC[C@H](NC(=O)[C@H](CC1CCCCC1)NC(=O)[C@@H](NC(=O)[C@H](CC(C)C)NC(=O)c1cnccn1)[C@@H](C)CC)C(=O)C(=O)NCC(=O)NS(=O)(=O)c1nnc(NC(C)=O)s1`, for which the midpoint of inhibition, the IC50, lay at 250 nM.
`CCCCCC(=O)Nc1nnc(S(=O)(=O)NC(=O)CNC(=O)C(=O)[C@H](CC(F)F)NC(=O)[C@H](CC2CCCCC2)NC(=O)[C@@H](NC(=O)[C@H](CC(C)C)NC(=O)c2cnccn2)[C@@H](C)CC)s1` returned an IC50 of 20 nM.
Under `CC[C@H](C)[C@H](NC(=O)[C@H](CC(C)C)NC(=O)c1cnccn1)C(=O)N[C@@H](CC1CCCCC1)C(=O)N[C@@H](CC(F)F)C(=O)C(=O)NCC(=O)NS(=O)(=O)c1nnc(NC(=O)c2ccc(Cl)cc2)s1` stands 20 nM; under `CC[C@H](NC(=O)[C@H](CC1CCCCC1)NC(=O)[C@@H](NC(=O)[C@H](CC(C)C)NC(=O)c1cnccn1)[C@@H](C)CC)C(=O)C(=O)NCC(=O)NS(=O)(=O)c1ccc(-c2ccccc2)cc1`, 2400 nM; under `CC[C@H](NC(=O)[C@H](CC1CCCCC1)NC(=O)[C@@H](NC(=O)[C@H](CC(C)C)NC(=O)c1cnccn1)[C@@H](C)CC)C(=O)C(=O)NCC(=O)NS(=O)(=O)c1cc(C(=O)O)ccc1Cl`, 110 nM.
Under `CC[C@H](NC(=O)[C@H](CC1CCCCC1)NC(=O)[C@@H](NC(=O)[C@H](CC(C)C)NC(=O)c1cnccn1)[C@@H](C)CC)C(=O)C(=O)NCC(=O)NS(=O)(=O)c1cccc(-c2ccccc2)c1` stands 640 nM; under `CC[C@H](NC(=O)[C@H](CC1CCCCC1)NC(=O)[C@@H](NC(=O)[C@H](CC(C)C)NC(=O)c1cnccn1)[C@@H](C)CC)C(=O)C(=O)NCC(=O)NS(=O)(=O)c1ccc([N+](=O)[O-])cc1`, 920 nM.
`CC[C@H](NC(=O)[C@H](CC1CCCCC1)NC(=O)[C@@H](NC(=O)[C@H](CC(C)C)NC(=O)c1cnccn1)[C@@H](C)CC)C(=O)C(=O)NCC(=O)NS(=O)(=O)C(F)(F)F`: the midpoint of inhibition, the IC50, lay at 470 nM.
On to `CC[C@H](C)[C@H](NC(=O)[C@H](CC(C)C)NC(=O)c1cnccn1)C(=O)N[C@@H](CC1CCCCC1)C(=O)N[C@@H](CC(F)F)C(=O)C(=O)NCC(=O)NS(=O)(=O)c1cc(Cl)cc(S(=O)(=O)NC(=O)c2ccccc2)c1`, for which the IC50 stood at 60 nM.
Take `CC[C@H](NC(=O)[C@H](CC1CCCCC1)NC(=O)[C@@H](NC(=O)[C@H](CC(C)C)NC(=O)c1cnccn1)[C@@H](C)CC)C(=O)C(=O)NCC(=O)NS(=O)(=O)c1cc(Cl)cc(S(=O)(=O)NC(=O)c2ccccc2)c1`: half-maximal inhibition (IC50) required 120 nM.
For the compound `CC[C@H](C)[C@H](NC(=O)[C@H](CC(C)C)NC(=O)c1cnccn1)C(=O)N[C@@H](CC1CCCCC1)C(=O)N[C@@H](CC(F)F)C(=O)C(=O)NCC(=O)NS(=O)(=O)c1cc(Cl)cc(S(N)(=O)=O)c1`, it took 50 nM to reach half-maximal inhibition (IC50).
Under `CC[C@H](NC(=O)[C@H](CC1CCCCC1)NC(=O)[C@@H](NC(=O)[C@H](CC(C)C)NC(=O)c1cnccn1)[C@@H](C)CC)C(=O)C(=O)NCC(=O)NS(C)(=O)=O` stands 25000 nM; under `CC[C@H](NC(=O)[C@H](CC1CCCCC1)NC(=O)[C@@H](NC(=O)[C@H](CC(C)C)NC(=O)c1cnccn1)[C@@H](C)CC)C(=O)C(=O)NCC(=O)O` (Pyrazinecarbonyl-LI[Cha][Abu(ψCOCO)]G-OH), 230 nM.
With `CC[C@H](C)[C@H](NC(=O)[C@H](CC(C)C)NC(=O)c1cnccn1)C(=O)N[C@@H](CC1CCCCC1)C(=O)N[C@@H](CC(F)F)C(=O)C(=O)NCC(=O)O` (Pyrazinecarbonyl-LI[Cha][X1]G-OH), the IC50 worked out at 60 nM.
